Read-outs that look alike come from different tables or passages of the source.
Tests used:
rat MCH1 receptor = target: T1, rat MCH1 receptor (Rattus norvegicus, UniProt P97639); test: Binding affinity (Ki) at the rat MCH1 receptor
T1 construct: expressed in transfected cells
Experimental: For binding assays, pellets of transfected cells are suspended in ice-cold buffer (20 mM Tris.HCl, 5 mM EDTA, pH 7.4) and homogenized by sonication for 7 sec. The cell lysates are centrifuged at 200×g for 5 min at 4° C. The supernatants are then centrifuged at 40,000×g for 20 min at 4° C. The resulting pellets are washed once in the homogenization buffer and suspended in binding buffer (see methods for radioligand binding). Protein concentrations are determined by the method of Bradford (1976) using bovine serum albumin as the standard. Binding assays are usually performed immediately, however it is possible to prepare membranes in batch and store frozen in liquid nitrogen for future use.
Binding is performed at 25° C. for 1 hr. Incubations are terminated by rapid vacuum filtration over GF/C glass fiber filters, presoaked in 5% PEI using 50 mM Tris pH 7.4 containing 0.01% triton X-100 as wash buffer.
A methanolic solution of methyl (4S)-3-({[3-(4-[3-(acetylamino)phenyl]-3,6-dihydro-1(2H)pyridinyl)propyl]amino}carbonyl)-4-(3,4-difluorophenyl)-6-(methoxymethyl)-2-oxo-1,2,3,4-tetrahydro-5-pyrimidinecarboxylate was exposed to tritium gas at 1 atmosphere pressure in the presence of 5% palladium on carbon with stirring overnight to give the tritiated methyl (4S)-3-{[(3-{4-[3-(acetylamino)phenyl]-1-piperidinyl}propyl)amino]carbonyl}-4-(3,4-difluorophenyl)-6-(methoxymethyl)-2-oxo-1,2,3,4-tetrahydro-5-pyrimidinecarboxylate ((+)-isomer) After purification by reverse phase HPLC (Hypersil ODS, 4.6×100 mm, methanol:H2O:Et3N 10:90:1 to 100:0:1 in 15 min at 1.0 mL/min, with radiochemical and UV detection), this product was used as a radioligand in the MCH1 binding assays. The same procedure was carried out with H2 gas in place of ^3H2 to afford the non-radioactive version of Compound 10.

[1] = target: T2, human Dopamine D2 receptor (Homo sapiens, UniProt P14416); test: Binding affinity at the human dopamine D2 receptor; conditions: Table 3c; read-out: hD2 Ki
T2 construct: purchased BioSignal, Inc. (Montreal, Canada)
Excerpt: (§1) Other receptors: Cell membranes expressing human dopamine D1, D2, D4 and rat D3 receptors were purchased through BioSignal, Inc. (Montreal, Canada). Binding assays using the histamine H1 receptor; dopamine receptors; and α1A, α1B, and α2 adrenergic receptors may be carried out according to the procedures described in U.S. Pat. No. 5,780,485, the disclosure of which is hereby incorporated by reference in its entirety into this application. Binding assays using the dopamine D5 receptor may be carried out according to the procedures described in U.S. Pat. No. 5,882,855, the disclosure of which is hereby incorporated by reference in its entirety into this application. Binding assays for the human α1D adrenergic receptor may be carried out according to the procedures described in U.S. Pat. No. 6,156,518, the disclosure of which is hereby incorporated by reference in its entirety into this application.

[2] = target: T3, human Histamine H1 receptor (Homo sapiens, UniProt P35367); test: Binding affinity at the human histamine H1 receptor; conditions: Table 3c; read-out: hH1 Ki
T3 construct: expressed in transfected cells
Excerpt: as §1

[3] = target: T4, human Alpha-1a Adrenergic receptor (Homo sapiens, UniProt P35348); test: Binding affinity at the human alpha-1A adrenergic receptor; conditions: Table 3c; read-out: hAlpha-1a Ki
T4 construct: expressed in transfected cells
T4 sequence (P35348 1-466): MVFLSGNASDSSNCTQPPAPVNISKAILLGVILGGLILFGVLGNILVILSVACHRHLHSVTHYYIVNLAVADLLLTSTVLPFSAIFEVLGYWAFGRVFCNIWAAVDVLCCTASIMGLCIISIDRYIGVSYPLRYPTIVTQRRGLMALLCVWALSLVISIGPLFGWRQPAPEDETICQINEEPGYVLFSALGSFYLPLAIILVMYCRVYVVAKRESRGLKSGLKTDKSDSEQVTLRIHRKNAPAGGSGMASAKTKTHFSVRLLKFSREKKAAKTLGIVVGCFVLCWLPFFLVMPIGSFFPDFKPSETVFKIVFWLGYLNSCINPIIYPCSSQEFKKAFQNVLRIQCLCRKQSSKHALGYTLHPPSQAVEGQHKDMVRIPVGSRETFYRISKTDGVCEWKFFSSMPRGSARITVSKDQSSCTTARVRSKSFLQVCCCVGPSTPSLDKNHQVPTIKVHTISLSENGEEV
Excerpt: as §1

[4] = Examples 38-141, read-out: Ki (nM) rMCH1
[5] = Examples 142-153, read-out: Ki (nM) rMCH1

T1 sequence (P97639 whole entry): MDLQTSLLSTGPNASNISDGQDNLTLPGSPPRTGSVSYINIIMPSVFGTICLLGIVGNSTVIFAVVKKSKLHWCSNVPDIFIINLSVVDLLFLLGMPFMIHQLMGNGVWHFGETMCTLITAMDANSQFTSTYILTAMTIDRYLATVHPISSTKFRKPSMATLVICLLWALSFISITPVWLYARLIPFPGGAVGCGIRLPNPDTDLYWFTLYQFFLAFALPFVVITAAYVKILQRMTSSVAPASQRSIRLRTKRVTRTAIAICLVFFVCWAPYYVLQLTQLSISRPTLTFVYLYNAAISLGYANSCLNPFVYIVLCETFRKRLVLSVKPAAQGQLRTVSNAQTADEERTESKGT
T2 sequence (P14416 whole entry): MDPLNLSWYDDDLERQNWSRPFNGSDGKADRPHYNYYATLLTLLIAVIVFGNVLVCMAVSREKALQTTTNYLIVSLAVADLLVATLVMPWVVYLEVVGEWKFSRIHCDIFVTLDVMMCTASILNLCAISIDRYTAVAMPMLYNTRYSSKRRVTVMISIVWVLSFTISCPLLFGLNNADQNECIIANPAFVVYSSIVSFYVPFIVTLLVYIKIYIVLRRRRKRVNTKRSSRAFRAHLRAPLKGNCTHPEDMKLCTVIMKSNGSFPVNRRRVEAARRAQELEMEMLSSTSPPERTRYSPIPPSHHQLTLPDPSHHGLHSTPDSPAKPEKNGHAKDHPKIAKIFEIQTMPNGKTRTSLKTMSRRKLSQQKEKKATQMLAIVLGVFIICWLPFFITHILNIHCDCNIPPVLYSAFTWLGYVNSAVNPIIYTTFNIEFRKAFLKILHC
T3 sequence (P35367 whole entry): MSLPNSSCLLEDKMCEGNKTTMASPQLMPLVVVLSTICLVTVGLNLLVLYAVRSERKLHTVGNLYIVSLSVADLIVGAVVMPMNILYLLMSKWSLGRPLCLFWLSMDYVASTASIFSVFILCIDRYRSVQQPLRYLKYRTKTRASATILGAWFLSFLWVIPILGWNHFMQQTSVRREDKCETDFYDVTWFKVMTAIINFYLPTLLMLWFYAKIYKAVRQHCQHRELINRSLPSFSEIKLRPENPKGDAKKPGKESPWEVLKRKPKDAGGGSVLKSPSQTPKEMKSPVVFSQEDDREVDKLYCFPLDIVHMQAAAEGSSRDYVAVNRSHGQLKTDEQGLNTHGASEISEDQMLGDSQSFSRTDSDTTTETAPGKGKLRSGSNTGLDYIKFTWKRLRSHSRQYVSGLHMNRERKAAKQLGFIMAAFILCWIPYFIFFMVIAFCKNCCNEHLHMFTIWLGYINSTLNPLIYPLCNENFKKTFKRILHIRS

SMILES	Ki (rat MCH1 receptor; [4])	Ki (rat MCH1 receptor; Table 3c, read-out: rMCH1 Ki)	Ki [1]	Ki [2]	Ki [3]	Ki (rat MCH1 receptor; [5])
COCC1=C(C(=O)OC)[C@H](c2ccc(F)c(F)c2)N(C(=O)NCCCN2CCC(c3cccc(N)c3)CC2)C(=O)N1 [Example 38, METHYL (4S)-3-[({3-[4-(3-AMINOPHENYL)-1-PIPERIDINYL]PROPYL}AMINO)CARBONYL]-4-(3,4-DIFLUOROPHENYL)-6-(METHOXYMETHYL)-2-OXO-1,2,3,4-TETRAHYDRO-5-PYRIMIDINECARBOXYLATE]	1.34 nM	1.34 nM	2370 nM	379 nM	23.8 nM	–
COCC1=C(C(=O)NCCCN2CCC(c3cccc(NC(=O)CC(C)(C)C)c3)CC2)[C@@H](c2ccc(F)c(F)c2)NC(=O)N1 [Example 49]	225 nM	225 nM	–	–	–	–
CC(=O)Nc1cccc(C2CCN(CCCNC(=O)N3C(=O)NC4=C(C(=O)OC4)C3c3ccc4nonc4c3)CC2)c1 (centres unmarked) [Example 55]	204 nM	204 nM	–	–	–	–
Cc1ccc(C(=O)CCCN2CCC(c3cccc(NC(=O)C4CCCCC4)c3)CC2)cc1C [Example 59]	768 nM	768 nM	–	–	–	–
Cc1ccc(C(=O)CCCN2CCC(c3cccc(NC(=O)Cc4ccccc4)c3)CC2)cc1C [Example 60]	357 nM	357 nM	–	–	–	–
COCC(=O)Nc1cccc(C2CCN(CCCC(=O)c3ccc(C)c(C)c3)CC2)c1 [Example 62]	274 nM	274 nM	–	–	–	–
Cc1ccc(C(=O)CCCN2CCC(c3cccc(NS(C)(=O)=O)c3)CC2)cc1C [Example 63]	1000 nM	1000 nM	–	–	–	–
CCS(=O)(=O)Nc1cccc(C2CCN(CCCC(=O)c3ccc(C)c(C)c3)CC2)c1 [Example 64]	627 nM	627 nM	–	–	–	–
O=C(CCCN1CCC(c2cccc(NC(=O)C3CCCCC3)c2)CC1)c1ccc(Cl)cc1 [Example 67]	197 nM	197 nM	–	–	–	–
COc1cccc(CC(=O)Nc2cccc(C3CCN(CCCC(=O)c4ccc(Cl)cc4)CC3)c2)c1 [Example 69]	11.9 nM	11.9 nM	–	–	61 nM	–
COCC(=O)Nc1cccc(C2CCN(CCCC(=O)c3ccc(Cl)cc3)CC2)c1 [Example 70]	167 nM	167 nM	–	–	–	–
CS(=O)(=O)Nc1cccc(C2CCN(CCCC(=O)c3ccc(Cl)cc3)CC2)c1 [Example 71]	720 nM	720 nM	–	–	–	–
CCS(=O)(=O)Nc1cccc(C2CCN(CCCC(=O)c3ccc(Cl)cc3)CC2)c1 [Example 72]	272 nM	272 nM	–	–	–	–
CC(=O)Nc1cccc(C2CCN(CCCC(=O)c3ccccc3)CC2)c1 [Example 73]	342 nM	342 nM	–	–	–	–
CC(C)C(=O)Nc1cccc(C2CCN(CCCC(=O)c3ccccc3)CC2)c1 [Example 74]	29.5 nM	29.5 nM	782 nM	–	115 nM	–
O=C(Cc1ccccc1)Nc1cccc(C2CCN(CCCC(=O)c3ccccc3)CC2)c1 [Example 75]	506 nM	506 nM	–	–	–	–
COc1cccc(CC(=O)Nc2cccc(C3CCN(CCCC(=O)c4ccccc4)CC3)c2)c1 [Example 76]	21 nM	21 nM	470 nM	–	41.3 nM	–
COc1ccc(C(=O)CCCN2CCC(c3cccc(NC(C)=O)c3)CC2)c(OC)c1 [Example 77]	630 nM	630 nM	–	–	–	–
COc1ccc(C(=O)CCCN2CCC(c3cccc(NC(=O)Cc4ccccc4)c3)CC2)c(OC)c1 [Example 79]	1040 nM	1040 nM	–	–	–	–
COc1cccc(CC(=O)Nc2cccc(C3CCN(CCCC(=O)c4ccc(OC)cc4OC)CC3)c2)c1 [Example 80]	67 nM	67 nM	1250 nM	–	127 nM	–
CC(=O)Nc1cccc(C2CCN(CCCC(=O)c3ccc(Oc4ccccc4)cc3)CC2)c1 [Example 81]	463 nM	463 nM	–	–	–	–
CC(C)C(=O)Nc1cccc(C2CCN(CCCC(=O)c3ccc(Oc4ccccc4)cc3)CC2)c1 [Example 82]	192 nM	192 nM	1980 nM	–	516 nM	–

SMILES	Ki (rat MCH1 receptor; [4])	Ki (rat MCH1 receptor; Table 3c, read-out: rMCH1 Ki)	Ki [1]	Ki [2]	Ki [3]	Ki (rat MCH1 receptor; [5])
COc1cccc(CC(=O)Nc2cccc(C3CCN(CCCC(=O)c4ccc(Oc5ccccc5)cc4)CC3)c2)c1 [Example 83]	91 nM	91 nM	503 nM	–	130 nM	–
CN(C)S(=O)(=O)Nc1cccc(C2CCN(CCCC(=O)c3ccc(Cl)cc3)CC2)c1 [Example 84]	511 nM	511 nM	–	–	–	–
CC(=O)Nc1cccc(C2CCN(CCCC(=O)c3cccs3)CC2)c1 [Example 85]	654 nM	654 nM	–	–	–	–
CC(=O)Nc1cccc(C2CCN(CCCC(=O)c3ccc(C(C)C)cc3)CC2)c1 [Example 86]	382 nM	382 nM	–	–	–	–
CC(=O)Nc1cccc(C2CCN(CCCC(=O)c3ccc(C)cc3)CC2)c1 [Example 87]	362 nM	362 nM	–	–	–	–
CC(=O)Nc1cccc(C2CCN(CCCC(=O)c3ccc(Br)cc3)CC2)c1 [Example 88]	160 nM	160 nM	–	–	–	–
Cc1ccc(C(=O)CCCN2CCC(c3cccc(NS(=O)(=O)C(C)C)c3)CC2)cc1C [Example 89]	615 nM	615 nM	–	–	–	–
CC(C)S(=O)(=O)Nc1cccc(C2CCN(CCCC(=O)c3ccc(Oc4ccccc4)cc3)CC2)c1 [Example 90]	651 nM	651 nM	–	–	–	–
CC(C)C(=O)Nc1cccc(C2CCN(CCCN3C(=O)c4ccccc4C3=O)CC2)c1 [Example 97]	946 nM	946 nM	–	–	–	–
CC(C)C(=O)Nc1cccc(C2CCN(CC[C@H](O)c3ccccc3)CC2)c1 [Example 98]	118 nM	118 nM	–	–	–	–
COc1cccc(CN2CCC(c3cccc(NC(=O)C(C)C)c3)CC2)c1 [Example 102]	187 nM	187 nM	–	–	–	–
CC(C)C(=O)Nc1cccc(C2CCN(CC[C@H](Oc3ccc(-c4ccccc4)cc3)c3ccccc3)CC2)c1 [Example 134]	22.2 nM	22.2 nM	37.6 nM	–	1310 nM	–
CC(C)C(=O)Nc1cccc(C2CCN(CC[C@H](Oc3cccc4ccccc34)c3ccccc3)CC2)c1 [Example 137]	377 nM	377 nM	–	–	–	–
CC(C)C(=O)Nc1cccc(C2CCN(CC[C@@H](c3ccccc3)N3C(=O)c4ccccc4C3=O)CC2)c1 [Example 138]	11.2 nM	11.2 nM	–	–	–	–
CC(C)C(=O)Nc1cccc(C2CCN(CC[C@H](Oc3ccc(Oc4ccccc4)cc3)c3ccccc3)CC2)c1 [Example 139]	48.1 nM	48.1 nM	–	–	–	–
COc1ccc(O[C@H](CCN2CCC(c3ccc(NC(=O)C(C)C)cc3)CC2)c2ccccc2)cc1OC [Example 140]	121 nM	121 nM	–	–	–	–
CC(C)C(=O)Nc1cccc(C2CCN(Cc3c[nH]c4cc(Cl)ccc34)CC2)c1 [Example 142]	–	–	–	–	–	20.6 nM
Cc1ccc(-n2cc(CN3CCC(c4cccc(NC(=O)C(C)C)c4)CC3)c3ccccc32)cc1 [Example 143]	–	–	–	–	–	14.9 nM
CCC(=O)N[C@@H](CCN1CCC(c2cccc(NC(=O)C(C)C)c2)CC1)c1ccccc1 [Example 144]	–	–	–	–	–	16 nM
CC(C)C(=O)Nc1cccc(C2CCN(CC[C@H](NC(=O)Cc3ccc(F)cc3)c3ccccc3)CC2)c1 [Example 145]	–	–	–	–	–	3 nM
CC(C)C(=O)Nc1cccc(C2CCN(CCCc3c(-c4ccccc4)n(-c4ccccc4)c4ccccc34)CC2)c1 [Example 146]	–	–	–	–	–	3 nM
CC(C)C(=O)Nc1cccc(C2CCN(Cc3ccc(Oc4ccc(Cl)cc4)cc3)CC2)c1 [Example 150]	–	–	–	–	–	5.2 nM

— patent publication US20040038855A1 (priority 1999, published 2004)
